Data published in patent publication US20250188075A1, “SUBSTITUTED HETEROCYCLIC CSNK1 INHIBITORS” (The Broad Institute, Inc., priority 2022, published 2025).
Where two headings read alike, the source gives them in different places.

Legend:
[1] = biological target: human CSNK1A1 (Homo sapiens (Human), UniProt P48729); experiment: CSNK1A1 high ATP assay (ADP-Glo, 1 mM ATP); assay type: biochemical; details: median, read-out: CSNK1A1 High ATP assay IC50 [mol/l] (median)
Procedure: CSNK1A1-inhibitory activity of compounds of the present invention in presence of 1 mM adenosine-tri-phosphate (ATP) was quantified employing the CSNK1A1-high-ATP-assay as described in the following paragraphs. In essence, the enzyme activity is measured by quantification of the adenosine-di-phosphate (ADP), which is generated as a co-product of the enzyme reaction, via the “ADP-Glo™ Kinase Assay” kit from the company Promega. This detection system works as follows: In a first step the ATP not consumed in the kinase reaction is quantitatively converted to CAMP employing an adenylate cyclase (“ADP-Glo-reagent”), then the adenylate cyclase is stopped and the ADP generated in the kinase reaction converted to ATP which generates in a luciferase-based reaction a glow-luminescence signal (“Kinase Detection Reagent”).
Recombinant fusion protein of N-terminal Glutathion-S-Transferase (GST) and full-length human CSNK1A1, expressed by baculovirus infected insect cells and purified via Glutathion affinity chromatography, was purchased from Life Technologies (product no. PV4174) and used as enzyme. As substrate for the kinase reaction the biotinylated peptide biotin-Ahx-KRRRAL-pS-VASLPGL (C-terminus in amide form) was used which can be purchased e.g. from the company Biosyntan (Berlin-Buch, Germany).
For the assay 50 nl of a 100 fold concentrated solution of the test compound in DMSO was pipetted into a white low volume 384-well microtiter plate (Greiner Bio-One, Frickenhausen, Germany), 2 μL of a solution of CSNK1A1 in aqueous assay buffer [50 mM HEPES pH 7.5, 10% (v/v) glycerol, 10 mM MgCl2, 50 mM NaCl, 1 mM dithiothreitol, 0.01% (w/v) bovine serum albumin, 0.01% (v/v) Triton X-100] were added and the mixture was incubated for 15 min at 22° C. to allow pre-binding of the test compounds to the enzyme before the start of the kinase reaction. Then the kinase reaction was started by the addition of 3 μL of a solution of ATP (1.67 mM=>final conc. in the 5 μL assay volume is 1 mM) and peptide substrate (167 μM=>final conc. in the 5 μL assay volume is 100 μM) in assay buffer and the resulting mixture was incubated for a reaction time of 30 min at 22° C. The concentration of CSNK1A1 was adjusted depending of the activity of the enzyme lot and was chosen appropriate to have the assay in the linear range, a typical concentration is about 0.4 ng/μL. The reaction was stopped by the addition of 2.5 μL of “ADP-Glo-reagent” (1:1.5 fold diluted with water) and the resulting mixture was incubated at 22° C. for 1 h to convert the ATP not consumed in the kinase reaction completely to CAMP. Subsequently 2.5 μL of the “kinase detection reagent” (1.2 fold more concentrated than recommended by the producer) were added, the resulting mixture was incubated at 22° C. for 1 h and then the luminescence measured with a suitable measurement instrument (e.g. Viewlux™ from Perkin-Elmer). The amount of emitted light was taken as a measure for the amount of ADP generated and thereby for the activity of the CSNK1A1.
The data were normalised (enzyme reaction without inhibitor=0% inhibition, all other assay components but no enzyme=100% inhibition).

[2] = test system: HT-29 cells; experiment: HT29 cell proliferation assay, CTG method; assay type: cell-based; details: Homo sapiens; HT-29, CTG, 96 h; median; read-out: 2D-PROLI HT-29 CTG 96 h, IC50 - [mol/l] (median)
Procedure: CELL PROLIFERATION ASSAY CTG METHOD, 384-well version: Day 1: plated 400 cells/30 μL/well in growth medium (DMEM/Ham's F12; (Biochrom; #FG 4815, mit stabilem Glutamin)+FCS (final: 10%); (Biochrom; #S 0415)) in 384-well black plates (Corning #3571). Plated sister wells in a separate plate for time zero determination. Incubated all plates overnight at 37° C. Day 2: added test compounds in serial dilutions using the HP D300 Digital Dispenser and incubated at 37° C. for 96 h. Measured time zero plate: add 30 μL/well CTG solution (Promega CellTiter-Glo solution (catalog #G7573)) to wells in time zero plate; incubated for 2 minutes in a orbital shaker to induce cell lysis; allowed the plate to incubate at room temperature for additional 10 min to stabilize luminescent signal and read luminescence on PheraStar (rapid mode—0.02 sec/well; GAIN 3000). Day 6: Added 30 μL/well CTG solution to all test wells, incubated for 2 minutes in a orbital shaker to induce cell lysis; allowed the plate to incubate at room temperature for additional 10 min to stabilize luminescent signal and read luminescence on PheraStar (rapid mode—0.02 sec/well; GAIN 3000 Proliferation IC50s were calculated using the DRC application in ShiNy Analysis Platform-SNAP.”

[3] = test system: HCT 116 cells; experiment: HCT 116 cell proliferation assay, CTG; assay type: cell-based; details: Homo sapiens; HCT 116, CTG, 96 h; median; read-out: 2D-PROLI HCT 116 CTG 96 h, IC50 - [mol/l] (median)
Procedure: 400 HCT 116 cells/30 μL/well were plated in growth medium (DMEM/Ham's F12, 10% FCS) in a 384-well plate (CORNING #3571) at day 1. Reference plate was seeded for time zero determination. All plates were incubated overnight 37° C. Day 2: test compound was added in 7-step dilution and incubate at 37° C. for 96 h. Day 2: time zero plate: 30 μL/well CTG solution (Promega Cell Titer Glo solution; catalog #G755B and G756B) were added, incubated for 30 minutes, read luminescence on PheraStar. Day 6: compound treated plates: 30 μL/well CTG solution (Promega Cell Titer Glo solution; catalog #G755B and G756B) were added, incubated for 30 minutes, luminescence was read on PheraStar. Proliferation was calculated after subtracting time zero luminescence values from day 6 values and comparing to untreated wells. The IC50 values were determined using the four parameter fit.

[4] = Solubility assay (thermodynamic solubility); assay type: physicochemical; details: thermodynamic from solid, aqueous buffer, mean
[5] = read-out: Thermodynamic Solubility [mg/l] (mean)
[6] = read-out: Thermodynamic Solubility [μmol/L] (mean)

Sequence of human CSNK1A1 (P48729 whole entry): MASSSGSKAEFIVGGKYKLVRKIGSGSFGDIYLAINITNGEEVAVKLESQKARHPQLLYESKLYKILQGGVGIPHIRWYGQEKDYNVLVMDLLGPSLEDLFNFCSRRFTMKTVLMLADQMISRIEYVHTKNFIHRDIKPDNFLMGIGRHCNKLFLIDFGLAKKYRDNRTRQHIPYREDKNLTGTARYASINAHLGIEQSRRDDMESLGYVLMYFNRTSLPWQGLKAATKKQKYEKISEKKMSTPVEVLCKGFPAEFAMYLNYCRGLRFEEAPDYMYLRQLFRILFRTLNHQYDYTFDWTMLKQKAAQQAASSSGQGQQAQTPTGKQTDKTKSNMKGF

Row | IC50 [1] [nM] | IC50 [2] [nM] | IC50 [3] [nM] | solubility thermodynamic at 24 h [4, 5] [mg/L] | solubility thermodynamic at 24 h [4, 6] [µmol/L] | SMILES
1 | 30.8 | 445 | 359 | 9.1 | 21.3 | Cc1nc(CC(=O)Nc2cc(-c3[nH]c4cccnc4c3-c3ccccn3)ccn2)cs1 [Example 3, 2-(2-methylthiazol-4-yl)-N-[4-[3-(2-pyridyl)-^1H-pyrrolo[3,2-b]pyridin-2-yl]-2-pyridyl]acetamide]
2 | 188 | 340 | 518 | < 0.1 | < 0.22 | Cn1nc(CC(=O)Nc2cc(-c3[nH]c4cccnc4c3-c3ccccn3)ccn2)cc1C1CC1 [Example 29, 2-(5-cyclopropyl-1-methyl-pyrazol-3-yl)-N-[4-[3-(2-pyridyl)-^1H-pyrrolo[3,2-b]pyridin-2-yl]-2-pyridyl]acetamide]
